Measured values: patent publication US12195427B2, “MASP-2 inhibitors and methods of use” (priority 2018, dated 2025)

Biological target: MASP-2 CCP2-SP (Homo sapiens (Human), UniProt O00187)
Test: MASP-2 co-crystallization, X-ray crystallography and structure analysis (H-bonds, van der Waals contacts);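 as to Ligand-pharmacophore element distance, pharmacophore element C2: distance from averaged pharmacophore element to bound ligand; missing value means element absent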;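 as to Ligand-pharmacophore element distance, pharmacophore element C3: distance from averaged pharmacophore element to bound ligand; missing value means element absent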;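 as to Ligand-pharmacophore element distance, pharmacophore element C4: distance from averaged pharmacophore element to bound ligand; missing value means element absent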;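 as to Ligand-pharmacophore element distance, pharmacophore element C5: distance from averaged pharmacophore element to bound ligand; missing value means element absent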
Parameters: van der Waals contact distance, MASP-2 HIS 483 atom CD2 / van der Waals contact distance, MASP-2 HIS 483 atom NE2 / van der Waals contact distance, SER 654 C to compound atom / van der Waals contact distance, SER 654 O to compound atom / van der Waals contact distance, TRP 655 C to compound atom / van der Waals contact distance, MASP-2 GLY 528 atom CA / van der Waals contact distance TRP 655 atom CZ3 / van der Waals contact distance TRP 655 atom N / van der Waals contact distance TRP 655 atom CE3 / van der Waals contact distance GLY 656 atom C / van der Waals contact distance GLY 656 atom CA / van der Waals contact distance GLY 656 atom O / van der Waals contact distance, MASP-2 TYR 607 atom CD1 / van der Waals contact distance, MASP-2 PRO 606 atom O / d(C3,CA1) / d(CA1,N1)2 / d(H4,O1) / d(H4,O2) / d(O1,O2) / d(CA1,O2) / d(CA6,O1) / d(CA6,O2) / d(CA1,C5) / d(O2,H3) / d(N2,C2) / d(CA5,N2) / d(N2,C4) / d(N2,C6) / d(N2,CA3) / d(N2,O3) / d(O4,H2): unit not given beside the values
Conditions: for Ligand-pharmacophore element distance, pharmacophore element C2 / Ligand-pharmacophore element distance, pharmacophore element C3 / Ligand-pharmacophore element distance, pharmacophore element C4 / Ligand-pharmacophore element distance, pharmacophore element C5 / Ligand-pharmacophore element distance, pharmacophore element C6 / Ligand-pharmacophore element distance, pharmacophore element C7 / Ligand-pharmacophore element distance, pharmacophore element CA1 / Ligand-pharmacophore element distance, pharmacophore element CA2 / Ligand-pharmacophore element distance, pharmacophore element CA3 / Ligand-pharmacophore element distance, pharmacophore element CA4 / Ligand-pharmacophore element distance, pharmacophore element CA5 / Ligand-pharmacophore element distance, pharmacophore element CA6: Table A4-1; for Pharmacophore torsion angle a(O1, O2, N2, CA2): Table A7-2
In short: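 Inhibitor complexes were obtained by soaking crystals of E. coli-expressed human MASP-2 CCP2-SP constructs, then flash-cooling in liquid nitrogen. Structures solved by molecular replacement (1Q3X search model) from synchrotron diffraction; where several poses existed, only one was analyzed, and nonbonded contacts listed can include H-bonds.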

[1] = Table A5-1 pharmacophore: distance between elements, S2/S1 region
[2] = Table A5-2 pharmacophore distance, S3/S4 region
[3] = Table A7-1, between pharmacophore elements of the bound compound
[4] = between pharmacophore elements of the bound compound

Chain of MASP-2 CCP2-SP (O00187 445-686): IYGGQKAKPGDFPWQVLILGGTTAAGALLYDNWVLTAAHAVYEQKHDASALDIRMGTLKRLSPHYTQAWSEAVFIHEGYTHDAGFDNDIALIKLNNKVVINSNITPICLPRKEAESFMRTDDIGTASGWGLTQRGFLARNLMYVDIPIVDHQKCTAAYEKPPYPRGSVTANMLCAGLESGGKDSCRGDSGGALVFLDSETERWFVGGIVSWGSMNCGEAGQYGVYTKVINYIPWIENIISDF
Chain of MASP-2 CCP2-SP (O00187 364-432 partner): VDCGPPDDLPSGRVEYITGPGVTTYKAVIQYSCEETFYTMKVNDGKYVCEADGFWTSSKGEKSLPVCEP

Structure (SMILES): C[C@H](NC(=O)[C@H]1C[C@H](Cc2ccccc2)CN1)C(=O)NCc1ccc(C(=N)N)cc1.Cl.Cl [1306_1]
- Ligand-pharmacophore element distance, pharmacophore element C2: 0
- Ligand-pharmacophore element distance, pharmacophore element C3: 0
- Ligand-pharmacophore element distance, pharmacophore element C4: 0
- Ligand-pharmacophore element distance, pharmacophore element C5: 0
- Ligand-pharmacophore element distance, pharmacophore element C6: 0
- Ligand-pharmacophore element distance, pharmacophore element C7: 0
- Ligand-pharmacophore element distance, pharmacophore element CA1: 0.05
- Ligand-pharmacophore element distance, pharmacophore element CA2: 0.6
- Ligand-pharmacophore element distance, pharmacophore element CA3: 0
- Ligand-pharmacophore element distance, pharmacophore element CA4: 0
- Ligand-pharmacophore element distance, pharmacophore element CA5: 0
- Ligand-pharmacophore element distance, pharmacophore element CA6: 0
- d(CA1,N1) [1]: 3.54
- d(CA1,O1) [1]: 4.38
- d(CA1,O2) [1]: 4.22
- d(H4,O1) [1]: 4.25
- d(H4,O2) [1]: 5.09
- d(O1,O2) [1]: 3.06
- d(N2,CA2) [2]: 6.06
- d(O2,H3) [2]: 5.26
- d(O2,N2) [2]: 2.66
- a(CA1, O1, O2) (Table A6-1 pharmacophore angle): 107.94
- a(O1, O2, H4) (Table A6-1 pharmacophore angle): 143.05
- A(N1, CA1, O1) a) (Table A6-1 pharmacophore angle, all compounds with protonatable center N1 except Methyl-amino-pyridine): 158.44
- a(O1, O2, H3) (Table A6-2 pharmacophore angle): 152.11
- a(O1, O2, N2) (Table A6-2 pharmacophore angle): 135.46
- a(O2, N2, CA2) (Table A6-2 pharmacophore angle): 155.89
- Pharmacophore torsion angle a(H4, O1, O2, H3) [3]: 36.21
- Pharmacophore torsion angle a(H4, O1, O2, N2) [3]: 120.80
- Pharmacophore torsion angle a(N1, CA1, O2, H4) [3]: 106.51
- Pharmacophore torsion angle a(O1, H4, O2, CA1) [3]: −170.32
- Pharmacophore torsion angle a(O1, O2, N2, CA2) [4]: 136.58

Structure (SMILES): C[C@H](NC(=O)[C@H]1C[C@@H](c2ccccc2)CCN1)C(=O)NCc1cc(Cl)ccc1O.Cl [1078_9]
- Ligand-pharmacophore element distance, pharmacophore element C2: 0.67
- Ligand-pharmacophore element distance, pharmacophore element C3: 0
- Ligand-pharmacophore element distance, pharmacophore element C4: 0
- Ligand-pharmacophore element distance, pharmacophore element C5: 0.46
- Ligand-pharmacophore element distance, pharmacophore element C6: 0
- Ligand-pharmacophore element distance, pharmacophore element C7: 0
- Ligand-pharmacophore element distance, pharmacophore element CA1: 1.62
- Ligand-pharmacophore element distance, pharmacophore element CA2: 0.56
- Ligand-pharmacophore element distance, pharmacophore element CA3: 0
- Ligand-pharmacophore element distance, pharmacophore element CA4: 0
- Ligand-pharmacophore element distance, pharmacophore element CA5: 0
- Ligand-pharmacophore element distance, pharmacophore element CA6: 0
- d(CA1,C5) [1]: 3.11
- d(CA1,O1) [1]: 4.31
- d(CA1,O2) [1]: 4.77
- d(CA1,O4) [1]: 2.74
- d(H4,O1) [1]: 2.21
- d(H4,O2) [1]: 2.49
- d(O1,O2) [1]: 3.11
- d(O4,H2) [1]: 0.98
- d(N2,C2) [2]: 1.46
- d(N2,CA2) [2]: 5.71
- d(O2,H3) [2]: 3.06
- d(O2,N2) [2]: 2.89
- a(C5, CA1, O1) (Table A6-1 pharmacophore angle): 161.68
- a(CA1, O1, O2) (Table A6-1 pharmacophore angle): 117.85
- a(CA1, O4, H2) (Table A6-1 pharmacophore angle): 128.05
- a(O1, CA1, O4) (Table A6-1 pharmacophore angle): 66.67
- a(O1, O2, H4) (Table A6-1 pharmacophore angle): 97.24
- a(O1, O2, H3) (Table A6-2 pharmacophore angle): 142.04
- a(O1, O2, N2) (Table A6-2 pharmacophore angle): 146.14
- a(O2, N2, C2) (Table A6-2 pharmacophore angle): 119.45
- a(O2, N2, CA2) (Table A6-2 pharmacophore angle): 153.36
- Pharmacophore torsion angle a(C5, CA1, O1, H4) [3]: 14.92
- Pharmacophore torsion angle a(H4, O1, O2, H3) [3]: −116.62
- Pharmacophore torsion angle a(H4, O1, O2, N2) [3]: −110.81
- Pharmacophore torsion angle a(O1, H4, O2, CA1) [3]: −50.72
- Pharmacophore torsion angle a(O1, O2, N2, C2) [3]: 144.64
- Pharmacophore torsion angle a(O1, O2, N2, CA2) [4]: 146.06
